Measured values: patent US12030904B2 (priority 2020, dated 2024)
Like-named read-outs stand apart in the source and are kept apart here.

What was measured:
[1] = tested on: Recombinant Respiratory Syncytial virus strain A2 containing the firefly luciferase reporter (RSV-Fluc); test: microbe, parasite or virus in culture; format: cell-based; settings: human respiratory syncytial virus, NHBE
[2] = tested on: SARS-CoV-2; test: microbe, parasite or virus in culture; format: cell-based; settings: Severe acute respiratory syndrome coronavirus 2, read-out: SARS EC50
[3] = MT4 cytotoxicity (CC50); settings: human, MT4 cells
[4] = 72 h, read-out: RSV-Fluc EC50 (NHBE), NHBE cells, three days, Table 2

Row | Compound | EC50 [1, 4] [nM] | EC50 ([1]; read-out: RSV EC50, Table 2a) [nM] | EC50 [2] [nM] | CC50 ([3]; MT4 CC50, Table 2a) [nM] | EC50 ([1]; read-out: RSV EC50, Table 4) [nM] | CC50 ([3]; MT4 CC50, Table 4) [nM]
1 | CCCCCCCCCCCCCCCCCCOC[C@H](COP(=O)(O)OC[C@H]1O[C@@](C#N)(c2ccc3c(N)ncnn23)[C@H](O)[C@@H]1O)OCc1ccc(Cl)c(Cl)c1 [Example 48, ((2R,3S,4R,5R)-5-(4-aminopyrrolo[2,1-f][1,2,4]triazin-7-yl)-5-cyano-3,4-dihydroxytetrahydrofuran-2-yl)methyl ((R)-2-((3,4-dichlorobenzyl)oxy)-3-(octadecyloxy)propyl) hydrogen phosphate] | 78 | 78 | 10000 | 1610 |  | 
2 | CCCCCCCCCCCCCCCCCCOC[C@H](COP(=O)(O)OC[C@H]1O[C@@](C#N)(c2ccc3c(N)ncnn23)[C@H](O)[C@@H]1O)OCc1ccc(OC)c(Cl)c1 [Example 49, ((2R,3S,4R,5R)-5-(4-aminopyrrolo[2,1-f][1,2,4]triazin-7-yl)-5-cyano-3,4-dihydroxytetrahydrofuran-2-yl)methyl ((R)-2-((3-chloro-4-methoxybenzyl)oxy)-3-(octadecyloxy)propyl) hydrogen phosphate] | 230 | 232 | 3350 | 951 |  | 
3 | CCCCCCCCCCCCCCCCCCOC[C@H](COP(=O)(O)OC[C@H]1O[C@@](C#N)(c2ccc3c(N)ncnn23)[C@H](O)[C@@H]1O)OCc1ccc2c(c1)CCC2 [Example 52, ((2R,3S,4R,5R)-5-(4-aminopyrrolo[2,1-f][1,2,4]triazin-7-yl)-5-cyano-3,4-dihydroxytetrahydrofuran-2-yl)methyl ((R)-2-((2,3-dihydro-1H-inden-5-yl)methoxy)-3-(octadecyloxy)propyl) hydrogen phosphate] |  | 125 | 487 | 17900 |  | 
4 | CCCCCCCCCCCCCCCCCCOC[C@H](COP(=O)(O)OC[C@H]1O[C@@](C#N)(c2ccc3c(N)ncnn23)[C@H](O)[C@@H]1O)OCc1ccc(C#N)cc1F [Example 53, ((2R,3S,4R,5R)-5-(4-aminopyrrolo[2,1-f][1,2,4]triazin-7-yl)-5-cyano-3,4-dihydroxytetrahydrofuran-2-yl)methyl ((R)-2-((4-cyano-2-fluorobenzyl)oxy)-3-(octadecyloxy)propyl) hydrogen phosphate] |  | 32 | 912 | 1840 |  | 
5 | CCCCCCCCCCCCCCCCCCOC[C@H](COP(=O)(O)OC[C@H]1O[C@@](C#N)(c2ccc3c(N)ncnn23)[C@H](O)[C@@H]1O)OCc1ccc(C#N)c(OC)c1 [Example 54, ((2R,3S,4R,5R)-5-(4-Aminopyrrolo[2,1-f][1,2,4]triazin-7-yl)-5-cyano-3,4-dihydroxytetrahydrofuran-2-yl)methyl ((R)-2-((4-cyano-3-methoxybenzyl)oxy)-3-(octadecyloxy)propyl) hydrogen phosphate] |  | 19 | 1630 | 289 |  | 
6 | CCCCCCCCCCCCCCCCCOCCCOP(=O)(O)OC[C@H]1O[C@@](C#N)(c2ccc3c(N)ncnn23)[C@H](O)[C@@H]1O [Example 55, ((2R,3S,4R,5R)-5-(4-aminopyrrolo[2,1-f][1,2,4]triazin-7-yl)-5-cyano-3,4-dihydroxytetrahydrofuran-2-yl)methyl (3-(heptadecyloxy)propyl) hydrogen phosphate] |  | 86 | 9420 | 29900 |  | 
7 | CCCCCCCCCCOCCCOP(=O)(O)OC[C@H]1O[C@@](C#N)(c2ccc3c(N)ncnn23)[C@H](O)[C@@H]1O [Example 56, ((2R,3S,4R,5R)-5-(4-Aminopyrrolo[2,1-f][1,2,4]triazin-7-yl)-5-cyano-3,4-dihydroxytetrahydrofuran-2-yl)methyl (3-(decyloxy)propyl) hydrogen phosphate] | 5000 | 5000 | 10000 | 50000 |  | 
8 | CCCCCCCCCCCCOCCCOP(=O)(O)OC[C@H]1O[C@@](C#N)(c2ccc3c(N)ncnn23)[C@H](O)[C@@H]1O [Example 57, ((2R,3S,4R,5R)-5-(4-Aminopyrrolo[2,1-f][1,2,4]triazin-7-yl)-5-cyano-3,4-dihydroxytetrahydrofuran-2-yl)methyl (3-(dodecyloxy)propyl) hydrogen phosphate] | 2200 | 2180 | 10000 | 50000 |  | 
9 | CCCCCCCCCCCCCCOCCCOP(=O)(O)OC[C@H]1O[C@@](C#N)(c2ccc3c(N)ncnn23)[C@H](O)[C@@H]1O [Example 58, ((2R,3S,4R,5R)-5-(4-Aminopyrrolo[2,1-f][1,2,4]triazin-7-yl)-5-cyano-3,4-dihydroxytetrahydrofuran-2-yl)methyl (3-(tetradecyloxy)propyl) hydrogen phosphate] | 70 | 70 | 10000 | 13000 |  | 
10 | CCCCCCCCCCCCCCCCCCOCCCOP(=O)(O)OC[C@H]1O[C@@](C#N)(c2ccc3c(N)ncnn23)[C@H](O)[C@@H]1O [Example 59, ((2R,3S,4R,5R)-5-(4-Aminopyrrolo[2,1-f][1,2,4]triazin-7-yl)-5-cyano-3,4-dihydroxytetrahydrofuran-2-yl)methyl (3-(octadecyloxy)propyl) hydrogen phosphate] | 170 | 171 | 10000 | 19600 |  | 
11 | CCCCCCCCCCCCCCCCOCCCOP(=O)(O)OC[C@H]1O[C@@](C#N)(c2ccc3c(N)ncnn23)[C@H](O)[C@@H]1O [Example 60, ((2R,3S,4R,5R)-5-(4-Aminopyrrolo[2,1-f][1,2,4]triazin-7-yl)-5-cyano-3,4-dihydroxytetrahydrofuran-2-yl)methyl (3-(hexadecyloxy)propyl) hydrogen phosphate] | 73 | 73 | 6950 | 25800 |  | 
12 | CCCCCCCCCCCCCCCCOC[C@H](COP(=O)(O)OC[C@H]1O[C@@](C#N)(c2ccc3c(N)ncnn23)[C@H](O)[C@@H]1O)OCCCCCCCCCCCCCCCC [Example 61, ((2R,3S,4R,5R)-5-(4-Aminopyrrolo[2,1-f][1,2,4]triazin-7-yl)-5-cyano-3,4-dihydroxytetrahydrofuran-2-yl)methyl ((R)-2,3-bis(hexadecyloxy)propyl) hydrogen phosphate] | 4500 | 4540 | 10000 | 50000 |  | 
13 | CCCCCCCCCCCCCCCCCCOC[C@H](COP(=O)(O)OC[C@H]1O[C@@](C#N)(c2ccc3c(N)ncnn23)[C@H](O)[C@@H]1O)OCc1ccc(Cl)cc1Cl [Example 62, ((2R,3S,4R,5R)-5-(4-aminopyrrolo[2,1-f][1,2,4]triazin-7-yl)-5-cyano-3,4-dihydroxytetrahydrofuran-2-yl)methyl ((R)-2-((2,4-dichlorobenzyl)oxy)-3-(octadecyloxy)propyl) hydrogen phosphate] | 220 | 217 | 8620 | 12600 |  | 
14 | CCCCCCCCCCCCCCCCCCOC[C@H](COP(=O)(O)OC[C@H]1O[C@@](C#N)(c2ccc3c(N)ncnn23)[C@H](O)[C@@H]1O)OCc1ccc(C#N)c(F)c1 [Example 67, ((2R,3S,4R,5R)-5-(4-aminopyrrolo[2,1-f][1,2,4]triazin-7-yl)-5-cyano-3,4-dihydroxytetrahydrofuran-2-yl)methyl ((R)-2-((4-cyano-3-fluorobenzyl)oxy)-3-(octadecyloxy)propyl) hydrogen phosphate] | 7.6 | 19 | 229 | 744 |  | 
15 | CCCCCCCCCCCCCCCCCCOC[C@H](COP(=O)(O)OC[C@H]1O[C@@](C#N)(c2ccc3c(N)ncnn23)[C@H](O)[C@@H]1O)Oc1ccccc1C#N [Example 73, ((2R,3S,4R,5R)-5-(4-aminopyrrolo[2,1-f][1,2,4]triazin-7-yl)-5-cyano-3,4-dihydroxytetrahydrofuran-2-yl)methyl ((R)-2-(2-cyanophenoxy)-3-(octadecyloxy)propyl) hydrogen phosphate] |  |  | 150 |  | 107 | 1200
16 | CCCCCCCCCCCCCCCCCCOC[C@H](COP(=O)(O)OC[C@H]1O[C@@](C#N)(c2ccc3c(N)ncnn23)[C@H](O)[C@@H]1O)Oc1ccc(C#N)c(OC)c1 [Example 74, ((2R,3S,4R,5R)-5-(4-aminopyrrolo[2,1-f][1,2,4]triazin-7-yl)-5-cyano-3,4-dihydroxytetrahydrofuran-2-yl)methyl ((R)-2-(4-cyano-3-methoxyphenoxy)-3-(octadecyloxy)propyl) hydrogen phosphate] |  |  | 31 |  | 10 | 196
17 | CCCCCCCCCCCCCCCCCCOC[C@H](COP(=O)(O)OC[C@H]1O[C@@](C#N)(c2ccc3c(N)ncnn23)[C@H](O)[C@@H]1O)OCc1cncc(C#N)c1 [Example 75, ((2R,3S,4R,5R)-5-(4-aminopyrrolo[2,1-f][1,2,4]triazin-7-yl)-5-cyano-3,4-dihydroxytetrahydrofuran-2-yl)methyl ((R)-2-((5-cyanopyridin-3-yl)methoxy)-3-(octadecyloxy)propyl) hydrogen phosphate] |  |  | 28 |  | 72 | 195
18 | CCCCCCCCCCCCCCCCCCOC[C@H](COP(=O)(O)OC[C@H]1O[C@@](C#N)(c2ccc3c(N)ncnn23)[C@H](O)[C@@H]1O)Oc1ccc(C#N)cn1 [Example 76, ((2R,3S,4R,5R)-5-(4-aminopyrrolo[2,1-f][1,2,4]triazin-7-yl)-5-cyano-3,4-dihydroxytetrahydrofuran-2-yl)methyl ((R)-2-((5-cyanopyridin-2-yl)oxy)-3-(octadecyloxy)propyl) hydrogen phosphate] |  |  | 48 |  | 31 | 295
19 | CCCCCCCCCCCCCCCCCCOC[C@H](COP(=O)(O)OC[C@H]1O[C@@](C#N)(c2ccc3c(N)ncnn23)[C@H](O)[C@@H]1O)Oc1cnc(C#N)cn1 [Example 77, ((2R,3S,4R,5R)-5-(4-aminopyrrolo[2,1-f][1,2,4]triazin-7-yl)-5-cyano-3,4-dihydroxytetrahydrofuran-2-yl)methyl ((R)-2-((5-cyanopyrazin-2-yl)oxy)-3-(octadecyloxy)propyl) hydrogen phosphate] |  |  | 31 |  | 7 | 196
